From paper PMC9448818 (Translational Psychiatry, 2022)

Tests used:
[1] = Dose-adjusted serum concentrations of drug and metabolite (LC-MS/MS) by CYP2C19 and CYP2D6 metabolizer group; format: in vivo, human; conditions: vs NM; for B, ARI concentrations in serum, CYP2D6 IM+PM: dose-adjusted
Excerpt: The 16-week study protocol consisted of two phases following screening and baseline visits. […] Blood samples were collected on Weeks 2, 10, and 16 to measure medication levels and on Week 4 for pharmacogenetic analyses. The methods used for the quantification of serum levels of drug and metabolite concentrations is described in the Supplementary Methods.
Serum concentrations were adjusted for dosage (i.e., ng/mL/mg). Sampling time (i.e., hours since the last dose) was entered as a covariate in the regression models to account for when the medication was taken.
The CYP2C19 metabolizer group was not included as a fixed effect covariate, as CYP2C19 is not known to be involved in the metabolism of ARI. […]
Collection of blood samples and quantification of serum drug and metabolite concentrations Participants self-reported the time at which the last dosage of the study medication was taken during the collection of the blood samples. […]
major metabolites, (S-DCT) and (DHA), were performed at the CAMH Clinical Laboratory using LC-MS/MS technology. Briefly, a mix of deuterated internal standards (Cerilliant) was added to 100 µL of each serum specimen, calibrator (Cerilliant) and quality control (MassCheck Antidepressants/Neuroleptics, Level 1 and Level 2). Proteins were precipitated with 300 µL of 9:1 Acetonitrile:Methanol (Sigma-Aldrich) followed by 5 min centrifugation at 9000 rpm. 25 µL of each supernatant was diluted with 200 µL of 0.1% Formic acid (Sigma-Aldrich) and then analyzed on the LC-MS/MS platform consisting of ThermoFisher TSQ Quantum Ultra mass spectrometer coupled with ThermoFisher Surveyor LC pump and HTC PAL autosampler fitted with a Kinetex F5 2.6 µm, 100 x 2.1 mm column (Phenomenex). Six minute gradient elution with 0.1% Formic Acid (mobile phase A) and Acetonitrile (mobile phase B) was applied. Collision energies ranged from 14 to […]
calibration curve ranging from 10 to 1000 ng/mL for each analyte.
Vendor nominal means for quality controls were used to assess the assay accuracy for each of the four analytes […]
precision was considered acceptable assay performance.
Data was analyzed with ThemoFisher XCalibur software.

[2] = test system: CYP2D6; conditions: cited from earlier work

Row | SMILES | B, S-DCTadj concentrations in serum, CYP2C19 IM+PM ([1]; Week 2 (Phase I)) | B, S-DCTadj concentrations in serum, CYP2C19 RM+UM ([1]; Week 2 (Phase I)) | B, S-DCTadj concentrations in serum, CYP2D6 IM+PM ([1]; Week 2 (Phase I)) | B, S-DCTadj concentrations in serum, CYP2C19 IM+PM ([1]; Week 10, ESC+ARI arm) | B, S-DCTadj concentrations in serum, CYP2C19 RM+UM ([1]; Week 10, ESC+ARI arm) | B, S-DCTadj concentrations in serum, CYP2D6 IM+PM ([1]; Week 10, ESC+ARI arm) | B, S-DCTadj concentrations in serum, CYP2C19 IM+PM ([1]; Week 10, ESC-Only arm) | B, S-DCTadj concentrations in serum, CYP2C19 RM+UM ([1]; Week 10, ESC-Only arm) | B, S-DCTadj concentrations in serum, CYP2D6 IM+PM ([1]; Week 10, ESC-Only arm) | B, S-DCTadj concentrations in serum, CYP2C19 IM+PM ([1]; Week 16, ESC+ARI arm) | B, S-DCTadj concentrations in serum, CYP2C19 RM+UM ([1]; Week 16, ESC+ARI arm) | B, S-DCTadj concentrations in serum, CYP2D6 IM+PM ([1]; Week 16, ESC+ARI arm) | B, S-DCTadj concentrations in serum, CYP2C19 IM+PM ([1]; Week 16, ESC-Only arm) | B, S-DCTadj concentrations in serum, CYP2C19 RM+UM ([1]; Week 16, ESC-Only arm) | B, S-DCTadj concentrations in serum, CYP2D6 IM+PM ([1]; Week 16, ESC-Only arm) | inhibition of CYP2D6 in vitro [2] | B, ARI concentrations in serum, CYP2D6 IM+PM ([1]; Week 10, ESC+ARI arm) | B, ARI concentrations in serum, CYP2D6 IM+PM ([1]; Week 16, ESC+ARI arm)
1 | CNCCC[C@@]1(c2ccc(F)cc2)OCc2cc(C#N)ccc21 [S-DCT, S-desmethylcitalopram] | -0.04 | 0.04 | -0.08 | -0.02 | 0.14 | -0.11 | -0.12 | 0.02 | -0.11 | -0.12 | 0.08 | -0.12 | -0.09 | 0.07 | -0.12 | weak inhibitors | – | –
2 | O=C1CCc2ccc(OCCCCN3CCN(c4cccc(Cl)c4Cl)CC3)cc2N1 [ARI, Aripiprazole] | – | – | – | – | – | – | – | – | – | – | – | – | – | – | – | – | -2.48 | 1.54
